Here are results for 19 molecules from patent publication US7868135B2, “Compositions of lipopeptide antibiotic derivatives and methods of use thereof” (priority 2003, dated 2011).

Starred links: 1 amine or outer side, 2 acyl side, 3 side chain; linkers in the order of their positions; H or OH if unused. Positions of bridges follow the written chain, without caps; N, C: chain ends. Non-standard residues stand in square brackets, D forms with d. Residues, ends and D or L forms follow the SMILES beside them. ξ: configuration not given here. *: point of attachment. ξAbu(βξ-NH2) = CC(N[*:3])C(N[*:1])C(=O)[*:2]; X7 = CC(NC(=O)C1CCNCC1)C(N[*:1])C(=O)[*:2]; Pentadecanoyl = CCCCCCCCCCCCCCC(=O)*; ξAsp(βξ-Me) = CC(C(=O)O)C(N)C(=O)O; X12 = O=C(c1ccc(NN[*:1])cc1)[*:2]; ξAbu(3ξ-NH2) = CC(N)C(N)C(=O)O; Lauroyl = CCCCCCCCCCCC(=O)*; Pip = O=C(O)[CH]1CCCCN1

What is called MIC is the smallest concentration in the dilution series that meets the test's criterion for growth inhibition.

The subject of the first experiment is Staphylococcus aureus (MSSA). Conditions: 24 h. The protocol: (“Approved Standard M7-A3”).
The antimicrobial lipopeptide derivatives described herein were tested for antimicrobial activity against Gram-positive bacteria as follows. The minimum inhibitory concentrations (MIC) of the antimicrobial lipopeptide derivatives of the invention were determined using NCCLS guidelines M7-A6 (2003) with a slight modification in that doubling serial dilutions were used to dilute the test compounds. The broth phase microdilution method was used. Isolated colonies of Staphylococcus aureus (MSSA) from an 18-24 hour blood agar plate cultures were used to inoculate cation adjusted Mueller-Hinton broth (CAMHB) supplemented with 0.625 mM calcium. […] A negative control containing media alone and a positive growth control containing bacteria with media alone were also included. MICs were determined after incubating the plates at about 37° C. for 24 hours. […] In Tables 1 to 16, R is the core cyclic peptide of amphomycin or aspartocin, which can be in the form of a β-isomer, an anhydro, a dianhydro, or any combination thereof. […] Furthermore, a person of skill in the art will appreciate that all the pounds, or groups of compounds, derived from the various combinations of and substituents shown in Tables 1 to 16, are disclosed by the present the same extent as if each compound or group of compounds was set forth individually.
For `CCCCCCCCCCCCCCC(=O)NC(CC(=O)O)C(=O)NC1C(=O)N2CCCCC2C(=O)NC(C(C)C(=O)O)C(=O)NC(CC(=O)O)C(=O)NCC(=O)NC(CC(=O)O)C(=O)NCC(=O)NC(C(C)NC(=O)[C@@H](N)CCCCN)C(=O)NC(C(C)C)C(=O)N2CCCC2C(=O)NC1C` (single isomer, unassigned) [Compound 129, C15-Amphomycin-9-Lys], the MIC stood at 1 µg/mL. Turning to `CCCCCCCCCCCCCCC(=O)NC(CC(=O)O)C(=O)NC1C(=O)N2CCCCC2C(=O)NC(C(C)C(=O)O)C(=O)NC(CC(=O)O)C(=O)NCC(=O)NC(CC(=O)O)C(=O)NCC(=O)NC(C(C)NC(=O)[C@@H](N)CCCCN)C(=O)NC(C(C)C)C(=O)N2CCCC2C(=O)NC1C` (single isomer, unassigned) [Compound 172, C15-Amphomycin-9-Lys], the MIC was found to be 16 µg/mL. On to `CCCCCCCCCCCCCCC(=O)NC(CC(=O)O)C(=O)NC1C(=O)N2CCCCC2C(=O)NC(C(C)C(=O)O)C(=O)NC(CC(=O)O)C(=O)NCC(=O)NC(CC(=O)O)C(=O)NCC(=O)NC(C(C)NC(=O)[C@@H](N)CC(C)C)C(=O)NC(C(C)C)C(=O)N2CCCC2C(=O)NC1C` (stereo partly shown) [Compound 5, C15-Amphomycin-9-Leu], for which the MIC lay in the range of 16 to 32 µg/mL. Consider `CCCCCCCCCC(=O)NC(CC(=O)O)C(=O)NC1C(=O)N2CCCCC2C(=O)NC(C(C)C(=O)O)C(=O)NC(CC(=O)O)C(=O)NCC(=O)NC(CC(=O)O)C(=O)NCC(=O)NC(C(C)N)C(=O)NC(C(C)C)C(=O)N2CCCC2C(=O)NC1C` (stereo not shown) [Compound 6, C10-Amphomycin], for which the MIC is 32 to 64 µg/mL.

For `CCCCCCCCCCC(=O)NC(CC(=O)O)C(=O)NC1C(=O)N2CCCCC2C(=O)NC(C(C)C(=O)O)C(=O)NC(CC(=O)O)C(=O)NCC(=O)NC(CC(=O)O)C(=O)NCC(=O)NC(C(C)N)C(=O)NC(C(C)C)C(=O)N2CCCC2C(=O)NC1C` (stereo not shown) [Compound 7, C11-Amphomycin], the MIC fell in the range of 32 to 64 µg/mL. Turning to `CCCCCCCCCCCC(=O)NC(CC(=O)O)C(=O)NC1C(=O)N2CCCCC2C(=O)NC(C(C)C(=O)O)C(=O)NC(CC(=O)O)C(=O)NCC(=O)NC(CC(=O)O)C(=O)NCC(=O)NC(C(C)N)C(=O)NC(C(C)C)C(=O)N2CCCC2C(=O)NC1C` (stereo not shown) [Compound 8, C12-Amphomycin], the MIC fell in the range of 4 to 8 µg/mL. As for `CCCCCCCCCCCCC(=O)NC(CC(=O)O)C(=O)NC1C(=O)N2CCCCC2C(=O)NC(C(C)C(=O)O)C(=O)NC(CC(=O)O)C(=O)NCC(=O)NC(CC(=O)O)C(=O)NCC(=O)NC(C(C)N)C(=O)NC(C(C)C)C(=O)N2CCCC2C(=O)NC1C` (stereo not shown) [Compound 9, C13-Amphomycin], the MIC fell in the range of 0.5 to 1 µg/mL. Take `CCCCCCCCCCCCCC(=O)NC(CC(=O)O)C(=O)NC1C(=O)N2CCCCC2C(=O)NC(C(C)C(=O)O)C(=O)NC(CC(=O)O)C(=O)NCC(=O)NC(CC(=O)O)C(=O)NCC(=O)NC(C(C)N)C(=O)NC(C(C)C)C(=O)N2CCCC2C(=O)NC1C` (stereo not shown) [Compound 10, C14-Amphomycin]: the MIC stood at 1 µg/mL.

On to `CCCCCCCCCCCCCCCCCC(=O)NC(CC(=O)O)C(=O)NC1C(=O)N2CCCCC2C(=O)NC(C(C)C(=O)O)C(=O)NC(CC(=O)O)C(=O)NCC(=O)NC(CC(=O)O)C(=O)NCC(=O)NC(C(C)N)C(=O)NC(C(C)C)C(=O)N2CCCC2C(=O)NC1C` (stereo not shown) [Compound 13, C18-Amphomycin], for which the MIC was 2 µg/mL. With `CCCCCCCCCCOc1ccc(C(=O)NC(CC(=O)O)C(=O)NC2C(=O)N3CCCCC3C(=O)NC(C(C)C(=O)O)C(=O)NC(CC(=O)O)C(=O)NCC(=O)NC(CC(=O)O)C(=O)NCC(=O)NC(C(C)N)C(=O)NC(C(C)C)C(=O)N3CCCC3C(=O)NC2C)cc1` (stereo not shown) [Compound 18, CH3—(CH2)9—O-p-Ph-C(═O)-Amphomycin], the MIC was 0.5 to 1 µg/mL. In the case of `CCCCCCCCOc1ccc(C(=O)NC(CC(=O)O)C(=O)NC2C(=O)N3CCCCC3C(=O)NC(C(C)C(=O)O)C(=O)NC(CC(=O)O)C(=O)NCC(=O)NC(CC(=O)O)C(=O)NCC(=O)NC(C(C)N)C(=O)NC(C(C)C)C(=O)N3CCCC3C(=O)NC2C)cc1` (stereo not shown) [Compound 19, CH3—(CH2)7—O-p-Ph-C(═O)-Amphomycin], the MIC was 0.5 µg/mL. `CCCCCCCCCCCC(=O)NNc1ccc(C(=O)NC(CC(=O)O)C(=O)NC2C(=O)N3CCCCC3C(=O)NC(C(C)C(=O)O)C(=O)NC(CC(=O)O)C(=O)NCC(=O)NC(CC(=O)O)C(=O)NCC(=O)NC(C(C)N)C(=O)NC(C(C)C)C(=O)N3CCCC3C(=O)NC2C)cc1` (stereo not drawn) [Compound 21, C12-p-Hydrazinobenzoic Acid-Amphomycin] (Lauroyl-[X12]D[ξAbu(βξ-NH2)][Pip][ξAsp(βξ-Me)]DGDG[ξAbu(3ξ-NH2)]VP; lactam 3-C; configuration not given here): the MIC was determined as 1 µg/mL. Regarding `CCCCCCCCCCCCCCC(=O)NC(CC(=O)O)C(=O)NC1C(=O)N2CCCCC2C(=O)NC(C(C)C(=O)O)C(=O)NC(CC(=O)O)C(=O)NCC(=O)NC(CC(=O)O)C(=O)NCC(=O)NC(C(C)NC(=O)CCCCCN)C(=O)NC(C(C)C)C(=O)N2CCCC2C(=O)NC1C` (stereo not shown) [Compound 25, C15-Amphomycin-9-Ahx], the minimal inhibitory concentration (MIC) is 1 µg/mL. Regarding `CCCCCCCCCCCCCCC(=O)NC(CC(=O)O)C(=O)NC1C(=O)N2CCCCC2C(=O)NC(C(C)C(=O)O)C(=O)NC(CC(=O)O)C(=O)NCC(=O)NC(CC(=O)O)C(=O)NCC(=O)NC(C(C)NC(=O)C2CCNCC2)C(=O)NC(C(C)C)C(=O)N2CCCC2C(=O)NC1C` (stereo not drawn) [Compound 26, C15-Amphomycin-9-Ina] (Pentadecanoyl-D[ξAbu(βξ-NH2)][Pip][ξAsp(βξ-Me)]DGDG[X7]VP; lactam 2-C; configuration not given here), the MIC is 4 µg/mL.

`CCCCCCCCCCCCCCC(=O)NC(CC(=O)O)C(=O)NC1C(=O)N2CCCCC2C(=O)NC(C(C)C(=O)O)C(=O)NC(CC(=O)O)C(=O)NCC(=O)NC(CC(=O)O)C(=O)NCC(=O)NC(C(C)NC(=O)[C@@H](N)Cc2ccc([N+](=O)[O-])cc2)C(=O)NC(C(C)C)C(=O)N2CCCC2C(=O)NC1C` (stereo partly shown) [Compound 27, C15-Amphomycin-9-(P—NO2-Phe)]: the MIC fell in the range of 32 to 64 µg/mL. In the case of `CCCCCCCCCCCCCCC(=O)NC(CC(=O)O)C(=O)NC1C(=O)N2CCCCC2C(=O)NC(C(C)C(=O)O)C(=O)NC(CC(=O)O)C(=O)NCC(=O)NC(CC(=O)O)C(=O)NCC(=O)NC(C(C)NC(=O)CNC(=O)[C@@H](N)Cc2ccccc2)C(=O)NC(C(C)C)C(=O)N2CCCC2C(=O)NC1C` (stereo partly shown) [Compound 28, C15-Amphomycin-9-Gly-Phe], the MIC was 2 µg/mL. Consider `CCCCCCCCCCCCCCC(=O)NC(CC(=O)O)C(=O)NC1C(=O)N2CCCCC2C(=O)NC(C(C)C(=O)O)C(=O)NC(CC(=O)O)C(=O)NCC(=O)NC(CC(=O)O)C(=O)NCC(=O)NC(C(C)NC(=O)[C@@H](N)CCC(=O)O)C(=O)NC(C(C)C)C(=O)N2CCCC2C(=O)NC1C` (stereo partly shown) [Compound 29, C15-Amphomycin-9-Glu], for which the MIC was 1 µg/mL. For the molecule `CCCCCCCCCCCCCCC(=O)NC(CC(=O)O)C(=O)NC1C(=O)N2CCCCC2C(=O)NC(C(C)C(=O)O)C(=O)NC(CC(=O)O)C(=O)NCC(=O)NC(CC(=O)O)C(=O)NCC(=O)NC(C(C)NC(=O)[C@@H](N)Cc2ccc(F)cc2)C(=O)NC(C(C)C)C(=O)N2CCCC2C(=O)NC1C` (stereo partly shown) [Compound 30, C15-Amphomycin-9-(P—F-Phe)], the MIC fell in the range of 32 to 64 µg/mL.

The same experiment, now with this note: S. aureus (MSSA), CAMHB supplemented with 0.625 mM calcium, 24 hours at about 37° C.; a range = compound tested multiple times.
For the molecule `CCCCCCCCCCCCCC(=O)NC(CC(=O)O)C(=O)NC1C(=O)N2CCCCC2C(=O)NC(C(C)C(=O)O)C(=O)NC(CC(=O)O)C(=O)NCC(=O)NC(CC(=O)O)C(=O)NCC(=O)NC(C(C)NC(=O)CN)C(=O)NC(C(C)C)C(=O)N2CCCC2C(=O)NC1C` (stereo not shown) [Compound 23, C14-Amphomycin-9-Gly], the MIC is reported as 23/8-16 μg/mL.
